# Values of other authors in patent US7385060B2, “Method for producing salts of tolperisone” (Sanochemia Pharmazeutika AG, priority 2002, dated 2008).
# Assays:
# RAT = conditions: oral
# HMN = conditions: inhalation, human, 30 m
compound,measurement,setting,value
C=O [formaldehyde],ORL-RAT LD50,RAT,100 mg/kg
same,IHL-TCLO HMN,HMN,17 mg/m^3/30 m
